Like-named read-outs stand apart in the source and are kept apart here.

The values that follow come from US9617330B2, “Chemorepulsion of cells” (Celtaxsys, Inc., priority 2006, dated 2017).

In assay [1] the test system is Monocyte. Briefly: Trans-well migration assay (Example 1), net migratory response.
Assay [2] deals with Eo-HL60 (HL-60 clone 15 differentiated to eosinophil-like phenotype). The description is as above. The note with it: net observed response. Type of assay: cell-based, human.
Assay [3] relates to Human primary neutrophils. Briefly: Trans-well migration assay (Example 3 method), unimodal fugetaxin test. As to conditions: for Unimodal fugetaxin hit, Neutrophils: human neutrophils, methods of Example 3. Type of assay: cell-based. On the set-up: key to Unimodal fugetaxin hit, Neutrophils: A “+” in the Table indicates a positive hit as a unimodal fugetaxin, as that term is defined herein, for that particular cell type.

The subject of assay [4] is Human primary CD4+ lymphocytes. Described as above. Format: cell-based. Set-up: key: A “+” in the Table indicates a positive hit as a unimodal fugetaxin, as that term is defined herein, for that particular cell type. The note with it: methods of Example 3.
Assay [5] concerns Neutrophils. The assay is described as follows: High throughput transmigration assay (Example 9), chemorepulsion. Format: cell-based, human.
For assay [6], the system named is B-cell. Briefly: Trans-well migration assay (Example 1), net migratory response. As to conditions: net observed response.
Description: Prior to beginning the assay 0.5% Fetal Calf Serum (FCS) in Iscove's Modified Dulbecco's Medium (IMDM) is prepared and stored on ice (Assay Medium). Migratory cells at a concentration of 2×10^7 cells/ml are suspended in Assay Medium. T-cells isolated from donor blood or buffy coats are allowed to rest overnight in Assay Medium at 37° C. in 5% CO2. Neutrophils, monocytes and B cells are utilized as soon as they are purified from donor blood or other source of human origin. Four serial (10×) dilutions of the ligand are then prepared in Assay Medium (normally 10 μg/ml to 0.01 μg/ml).
Plates are removed from the packaging, leaving the membrane behind and intact. The membrane is set aside. Into each well is pipetted 31 μl of solution. For media controls and fugetaxis (chemorepellent) samples, Assay Medium is used. For chemoattraction samples, the appropriate dilution of agent in assay medium is used.
Using a sterile needle, all small bubbles present in each well are popped and the membrane is carefully placed onto the plate, starting at one side and slowly lowering the other edge onto the plate.
Then 29 μl is pipetted into each circle imprinted on the polycarbonate or polyester membrane. For media controls and chemoattraction samples, Assay Medium is used. For fugetaxis (chemorepellent) samples, the appropriate dilution of ligand in assay medium is used.
To each 29 uL aliquot above is added 2 μl of cells (40,000 cells). It is important to ensure that before beginning the cells are well suspended and that they are mixed. This mixing can be accomplished by agitating the tube between each addition.
The plate is then covered with the supplied lid and incubated 1-3 hours in a humidified incubator at 37° C. in 5% CO2. Following the incubation period, the liquid from the top of the plate is removed with a tissue or similar blotting material (e.g. a Kimwipe). The membrane is carefully removed from the top of the plate and discarded. […] Using a multichannel pipettor, each well of the microplate is rinsed with 25 μl Phosphate Buffered Saline (Mediatech #21-040-CV) and transferred to the same wells in the white microplate. Using a multichannel pipettor, 50 μl CellTiter-Glo Luminescent Cell Viability Assay (Promega #G7572) is added to each well and mixed.
The plate is read using the Perkin Elmer Victor^3V plate reader using the Large Aperture Luminescence setting at 8 mm height above the plate with a dwell time of 1 s to quantify the number of migrated cells.
The results reported reflect the net observed migratory response of the cells to the ligand and are not based on the definition of unimodal fugetaxins.
Assay [7] relates to B cells. Briefly: High throughput transmigration assay (Example 9), chemorepulsion. Type of assay: cell-based, human. On the set-up: key: ratio of chemorepulsion (CR) to spontaneous migration (SM), CR/SM. The note with it: mean of three donors at concentration of highest activity, range 0.00125-1.25 μM. An excerpt:
(§1) An agent's repellent index is the ratio of chemorepulsion (CR) to spontaneous migration (SM) induced by the agent, i.e., [(CR)/(SM)]. […] For example, in calculating a RI for an agent, migratory responses including chemorepulsion (CR) and spontaneous migration (SM) may be measured over several decades or log scales of concentration. If, over any two consecutive measurements at concentrations which differ by at least 10 fold, the ratio of CR to SM at each of the two contiguous measurements is equal to or greater than 1.2, then the agent is considered a validated chemorepellent.
(§2) For primary human T cells, up to 80 ml of blood is drawn from a human donor in sodium heparin Vacutainer tubes (Becton-Dickinson). The blood (between 10 and 15 ml per tube) is then layered onto 30 ml of Lymphocyte Separation Medium (LSM) (Cellgro, Herndon, Va.) in a 50 ml conical centrifuge tube and centrifuged for 20 minutes at 2440×g in a swinging bucket rotor. After removing the majority of the plasma from the top of each tube, the peripheral blood mononucleocyte (PBMC) layer is removed and transferred to fresh 50 ml conical centrifuge tubes. The tubes are then filled to 50 ml with IMDM and centrifuged for 10 minutes at 500×g. All but approximately 5 ml of the supernatant is then removed and the pellet resuspended with 25 ml IMDM and the centrifugation repeated. After removal of the supernatant, the cells are resuspended and combined to one 50 ml tube (per subject) and brought to a total volume of 50 ml. The cells are then counted using a hemacytometer (Reichert). After centrifugation under the same conditions, the supernatant is removed and the cells processed using the appropriate Miltenyi Biotec (Auburn, Calif.) negative selection kit to enrich for the desired cell type according to manufacturers instructions. The resulting purified cells are then diluted to 50 ml with IMDM. After centrifugation at 500×g for 10 minutes, the supernatant is removed and the cells resuspended in 15 ml IMDM supplemented with 0.5% heat inactivated fetal calf serum (FCS) (ATCC, Manassas, Va.). After another centrifugation for 10 minutes at 500×g, the supernatant is again removed and the cells resuspended in 7 ml 0.5% FCS in IMDM (assay medium) and transferred to a 15 ml conical centrifuge tube. The cells are then quantitated using a hemacytometer. When enriching for monocytes, the concentration of cells is adjusted to 2×10^7 per ml by centrifugation and removal of the appropriate volume of assay medium. For all other cell types, the tube cap is replaced with one from a 25 cm^2 tissue culture flask (Corning) and the cells stored overnight in a humidified 37° C. incubator with 5% CO2. The concentration of the cells is adjusted as for monocytes just prior to transmigration assay of Example 9.
(§3) Migration away from a chemical or biological agent (chemorepulsion (CR)) was measured using ChemoTx plates (Neuroprobe). These plates contain a planar polycarbonate or polyester membrane that has been etched and perforated so that cells can move along the etched tracks and fall through perforation holes, enabling the cells to be collected and the number of migrated cells quantified (FIGS. 5-6). Several dilutions (normally 4 in 10-fold increments) are prepared of the agent of interest. For neutrophils, plates with 3 μm pore membranes are used, while for all other primary cell types, 5 μm pore membranes are used. Membranes may, or may not, be coated with polyvinylpyrrolidine (PVP) as a wetting agent.
(§4) For spontaneous migration controls and chemorepulsion (CR) assays, 31 μl of assay medium is pipetted into the lower well of the transmigration apparatus (FIGS. 5-6). For spontaneous migration controls and chemoattraction (CA) assays, 29 μl of assay medium is pipetted into upper chamber of the transmigration apparatus (FIG. 5). For CR, the upper well assay medium contains the agent or candidate chemorepellent. […]

Assay [8] relates to CD8+. Described as above. Type of assay: cell-based, human. The note with it: mean of three donors at concentration of highest activity.
Description: as §1, §2, §3, §4

Where [9] appears, read: Monocyte, net observed response.
Setting [10] is: Neutrophils, mean of three donors at concentration of highest activity, range 0.00125-1.25 μM.
The mark [11] stands for this setting: neutrophils, 0.00125 μM, one donor, triplicate, ± SD.
Setting [12] is: neutrophils, 0.0125 μM, one donor, triplicate, ± SD.
[13] abbreviates: neutrophils, 0.125 μM, one donor, triplicate, ± SD.
[14] abbreviates: neutrophils, 1.25 μM, one donor, triplicate, ± SD.

In the case of `CC(C)Cn1cnc2c(N)nc3ccccc3c21` [Imiquimod, reference compound], the “Migratory Response” value in assay [1] (setting [9]) and in assay [2] was “chemorepulsion” throughout. Also, in assay [3], the “Unimodal fugetaxin hit, Neutrophils” value is on record as “+”. In addition, the “Unimodal fugetaxin hit, CD4+” value in assay [4] is reported as “+”.

On to `CC(=O)O[C@H]1C(=O)[C@@]2(C)[C@H]([C@H](OC(=O)c3ccccc3)[C@]3(O)C[C@H](OC(=O)[C@H](O)[C@@H](NC(=O)c4ccccc4)c4ccccc4)C(C)=C1C3(C)C)[C@]1(OC(C)=O)CO[C@@H]1C[C@@H]2O` [Paclitaxel, reference compound], for which the “Migratory Response” value in assay [1] (setting [9]) and in assay [2] was “chemorepulsion” each time.

With `Oc1ccc(C=Cc2cc(O)cc(O)c2)cc1` [Resveratrol, reference compound], the “Repellent Index” value was 1.4 in assay [5] (setting [10]); 2.65 ± 0.29 in assay [5] (setting [11]); 2.80 ± 0.32 in assay [5] (setting [12]); 2.05 ± 0.28 in assay [5] (setting [13]); 1.32 ± 0.50 in assay [5] (setting [14]). For the same molecule, the “Migratory Response” value in assay [6] and in assay [2] was “chemorepulsion” in each case.

Consider CCL11: chemokine, for which the “Repellent Index” value in assay [7] is recorded as 2.1.

In the case of CXCL1: chemokine, the “Repellent Index” value in assay [5] (setting [10]) worked out at 2.6; in assay [7], 1.3.

“Galectin-1: carbohydrate binding protein (galectin), full-length, purchased; accession P09382”: the “Repellent Index” value in assay [5] (setting [10]) turned out to be 2.3; in assay [5] (setting [11]), 0.80 ± 0.08; in assay [5] (setting [12]), 0.96 ± 0.22; in assay [5] (setting [13]) it was 1.05 ± 0.14; in assay [5] (setting [14]) it was 3.70 ± 0.29. The “Migratory Response” value in assay [1] (setting [9]) and in assay [2] was “chemorepulsion” each time.

Turning to “HSP27: heat shock protein; accession G01523/AAA62175”, the “Repellent Index” value in assay [5] (setting [10]) is recorded as 4.4. The “Migratory Response” value in assay [1] (setting [9]) and in assay [2] was “chemorepulsion” in each case. Also, the “Unimodal fugetaxin hit, Neutrophils” value in assay [3] is “+”.

For the molecule “HSP40 Human: heat shock protein; accession BAA08495”, the “Repellent Index” value in assay [5] (setting [10]) amounted to 1.4. Also, the “Migratory Response” value in assay [1] (setting [9]) and in assay [2] was “chemorepulsion” in each case.

For HSP60: heat shock protein, in assay [2], the “Migratory Response” value is recorded as “chemorepulsion”. Further, in assay [3], the “Unimodal fugetaxin hit, Neutrophils” value was “+”. Moreover, the “Unimodal fugetaxin hit, CD4+” value in assay [4] is “+”.

In the case of “HSP90: heat shock protein; accession NP_005339.2 and others”, in assay [5] (setting [10]), the “Repellent Index” value was found to be 1.7. Also, the “Migratory Response” value in assay [2] is “chemorepulsion”. The “Unimodal fugetaxin hit, Neutrophils” value in assay [3] is “+”. For the same molecule, the “Unimodal fugetaxin hit, CD4+” value in assay [4] was “+”.

With IL8: interleukin-8, the “chemotactic (chemoattractant) versus fugetactic (chemorepellent) response of neutrophils” value in assay [3] (neutrophils, 1 hour, FIGS. 3 and 4, at 10 uM where stated) is given as “over twice as chemotactic (chemoattractant) as fugetactic (chemorepellent)”.

For the molecule “N-acetylmuramyl (MDP) [reference compound]”, the “Migratory Response” value in assay [1] and in assay [2] was “chemorepulsion” each time.

For the molecule Poly(I:C) [reference compound], the “Repellent Index” value in assay [5] (Neutrophils, mean of three donors at concentration of highest activity, range 0.01-10 μg/ml) was 1.4. Besides, the “Migratory Response” value in assay [1] (setting [9]), in assay [6] and in assay [2] was “chemorepulsion” throughout.

B1: CCL27: chemokine (protein, UniProt Q9Y4X3 25-112, looked up)
C-C motif chemokine 27: FLLPPSTACCTQLYRKPLSDKLLRKVIQVELQEADGDCHLQAFVLHLAQRSICIHPQNPSLSQWFEHQERKLHGTLPKLNFGMLRKMG
As for B1, in assay [7], the “Repellent Index” value came out at 1.4.

B2: Cathespin G, Human Neutrophil: Cathespin G, Human Neutrophil (protein, UniProt P08311 21-244, looked up)
Cathepsin G: IIGGRESRPHSRPYMAYLQIQSPAGQSRCGGFLVREDFVLTAAHCWGSNINVTLGAHNIQRRENTQQHITARRAIRHPQYNQRTIQNDIMLLQLSRRVRRNRNVNPVALPRAQEGLRPGTLCTVAGWGRVSMRRGTDTLREVQLRVQRDRQCLRIFGSYDPRRQICVGDRRERKAAFKGDSGGPLLCNNVAHGIVSYGKSSGVPPEVFTRVSSFLPWIRTTMRS
As for B2, the “Migratory Response” value in assay [1] (setting [9]), in assay [6] and in assay [2] was “chemorepulsion” in each case.

B3: Galectin-2: carbohydrate binding protein (galectin), full-length, purchased; accession P05162 (protein, UniProt P05162 1-132, looked up)
chain: MTGELEVKNMDMKPGSTLKITGSIADGTDGFVINLGQGTDKLNLHFNPRFSESTIVCNSLDGSNWGQEQREDHLCFSPGSEVKFTVTFESDKFKVKLPDGHELTFPNRLGHSHLSYLSVRGGFNMSSFKLKE
modifications: full-length
B3: in assay [8] (range 0.00125-1.25 μM), the “Repellent Index” value came out at 1.5. Further, the “Migratory Response” value in assay [2] is “chemorepulsion”.

B4: Semaphorin 3F: semaphorin (protein, UniProt Q13275 19-785, looked up)
Semaphorin-3F: SFPTQDHLPATPRVRLSFKELKATGTAHFFNFLLNTTDYRILLKDEDHDRMYVGSKDYVLSLDLHDINREPLIIHWAASPQRIEECVLSGKDVNGECGNFVRLIQPWNRTHLYVCGTGAYNPMCTYVNRGRRAQATPWTQTQAVRGRGSRATDGALRPMPTAPRQDYIFYLEPERLESGKGKCPYDPKLDTASALINEELYAGVYIDFMGTDAAIFRTLGKQTAMRTDQYNSRWLNDPSFIHAELIPDSAERNDDKLYFFFRERSAEAPQSPAVYARIGRICLNDDGGHCCLVNKWSTFLKARLVCSVPGEDGIETHFDELQDVFVQQTQDVRNPVIYAVFTSSGSVFRGSAVCVYSMADIRMVFNGPFAHKEGPNYQWMPFSGKMPYPRPGTCPGGTFTPSMKSTKDYPDEVINFMRSHPLMYQAVYPLQRRPLVVRTGAPYRLTTIAVDQVDAADGRYEVLFLGTDRGTVQKVIVLPKDDQELEELMLEEVEVFKDPAPVKTMTISSKRQQLYVASAVGVTHLSLHRCQAYGAACADCCLARDPYCAWDGQACSRYTASSKRRSRRQDVRHGNPIRQCRGFNSNANKNAVESVQYGVAGSAAFLECQPRSPQATVKWLFQRDPGDRRREIRAEDRFLRTEQGLLLRALQLSDRGLYSCTATENNFKHVVTRVQLHVLGRDAVHAALFPPLSMSAPPPPGAGPPTPPYQELAQLLAQPEVGLIHQYCQGYWRHVPPSPREAPGAPRSPEPQDQKKPRNRRHHPPDT
Take B4: the “Repellent Index” value in assay [8] (range 0.01-10 μM) is recorded as 1.3; in assay [5] (Neutrophils, mean of three donors at concentration of highest activity, range 0.01-10 μM), 1.8.
